EC50 data for 25 compounds are collected here from BindingDB's records for doi:10.1021/acsmedchemlett.9b00051 (Ajinomoto, 2019).

The nature of test [1]: Positive allosteric modulator activity at human T1R2/T1R3 expressed in PEAKrapid cells assessed as potentiation of sucrose-induced intracellular calcium influx by measuring sucrose EC50 at 30 uM measured for 120 secs by fluorescence based assay (Rvb = 31.7 mM).
A short description of test [2]: Positive allosteric modulator activity at human T1R2/T1R3 expressed in PEAKrapid cells assessed as potentiation of sucrose-induced intracellular calcium influx by measuring sucrose EC50 at 50 uM measured for 120 secs by fluorescence based assay (Rvb = 31.7 mM).

As usually defined, the EC50 is the midpoint of the concentration-response curve. In the case of `CC(=O)NCc1ccc(-c2cncc(C(=O)O)c2N)o1`, the EC50 in test [1] is 27.1 mM.
Regarding `CC(C)[C@@H](CC(=O)Nc1cncc(C(=O)O)c1N)NC(=O)[C@@H](N)C1CCCCC1`, the EC50 in test [1] came to 18.4 mM.
Same read-out and setting: the same measure for `CC(C)CC(=O)NCc1ccc(-c2cncc(C(=O)O)c2N)o1`: 18.3 mM; for `Nc1c(C(=O)O)cncc1-c1ccc(CNC(=O)[C@@H](N)C2CCCCC2)o1`: 5.8 mM; for `Cc1nc2ccccc2c(N)c1C(=O)O`: 15.9 mM.
The same measure, in the same setting: the figure for `CC(C)(C)OC(=O)NCc1ccc(-c2cncc(C(=O)O)c2N)o1` is 24.5 mM; for `CC(C)CNC(=O)NCc1ccc(-c2cncc(C(=O)O)c2N)o1` it is 21.6 mM; for `CC(C)C[C@H](N)C(=O)NCc1ccc(-c2cncc(C(=O)O)c2N)o1` it is 11.1 mM.
Turning to `Nc1c(NC(=O)CCCNC(=O)[C@@H](N)C2CCCCC2)cncc1C(=O)O`, the EC50 in test [1] is 16.2 mM.
The same measure, in the same setting: the same measure for `Nc1c(NC(=O)CCCCNC(=O)[C@@H](N)C2CCCCC2)cncc1C(=O)O`: 7.8 mM; for `C[C@@H](CC(=O)Nc1cncc(C(=O)O)c1N)NC(=O)[C@@H](N)C1CCCCC1`: 10.2 mM; for `CC(C)C[C@@H](CC(=O)Nc1cncc(C(=O)O)c1N)NC(=O)[C@@H](N)C1CCCCC1`: 22.7 mM.
On the same count and under the same terms, the same measure for `CC[C@H](C)[C@@H](CCC(=O)Nc1cncc(C(=O)O)c1N)NC(=O)[C@@H](N)C1CCCCC1`: 8.9 mM.
For `Nc1c(C(=O)O)cncc1-c1ccccc1`, the EC50 in test [2] turned out to be 21.5 mM.
Same read-out and setting: the same measure for `Nc1c(C(=O)O)cncc1-c1cccs1`: 21 mM.
Turning to `CC(C)C(=O)NCc1ccc(-c2cncc(C(=O)O)c2N)o1`, the EC50 in test [1] is 22.1 mM.
For the compound `CC[C@H](C)[C@H](N)C(=O)NCc1ccc(-c2cncc(C(=O)O)c2N)o1`, the EC50 in test [1] was found to be 10 mM.
On the same count and under the same terms, the figure for `Nc1c(NC(=O)CC[C@H](Cc2ccccc2)NC(=O)[C@@H](N)C2CCCCC2)cncc1C(=O)O` is 8.5 mM; for `CC(C)CNC(=O)C(=O)NCc1ccc(-c2cncc(C(=O)O)c2N)o1` it is 26.5 mM; for `Cc1nc2cccc(OCC(C)(C)C(=O)NC(C)C)c2c(N)c1C(=O)O` it is 0.6 mM.
As to `CC(C)[C@H](N)C(=O)NCc1ccc(-c2cncc(C(=O)O)c2N)o1`, the concentration giving a half-maximal response (EC50) in test [1] stood at 14.6 mM.
On the same count and under the same terms, the figure for `Nc1c(NC(=O)CCCCCCNC(=O)[C@@H](N)C2CCCCC2)cncc1C(=O)O` is 20.2 mM.
As for `Nc1c(C(=O)O)cncc1-c1ccco1`, in test [2], the EC50 is 16.8 mM.
Regarding `CC(C)(CC(=O)Nc1cncc(C(=O)O)c1N)NC(=O)[C@@H](N)C1CCCCC1`, in test [1], the EC50 is 2.2 mM.
The same measure, in the same setting: the same measure for `CC(C)[C@@H](CCC(=O)Nc1cncc(C(=O)O)c1N)NC(=O)[C@@H](N)C1CCCCC1`: 10.5 mM.
